US7288659B2, “Acylaminothiazole derivatives, their preparation and therapeutic use” (Sanofi-Aventis, priority 2001, dated 2007)
Where a name gives a salt, the structure may show the parent alone.

Compound | melting point [°C]
CCC[C@H](NC(=O)Cc1cc(F)cc(F)c1)C(=O)Nc1nc(C)c(-c2ccccc2COC2CCN(C)CC2)s1 (as salt: phosphate) [compound 68, (2S)-N-(5-{2-[(N-methylpiperidin-4-yloxy)methyl]-phenyl}-4-methyl-1,3-thiazol-2-yl)-2-{[2-(3,5-difluorophenyl)acetyl]amino}pentanamide] | 186
C[C@H](NC(=O)[C@H](O)c1cc(F)cc(F)c1)C(=O)Nc1ncc(-c2ccccc2COC2CCCCC2)s1 (racemic) [Compound No. 50, (2S)-N-(5-{2-[(cyclohexyloxy)methyl]phenyl}-1,3-thiazol-2-yl)-2-{[(2R)-2-(3,5-difluorophenyl)-2-hydroxyacetyl]amino}propanamide] | 169
CC(NC(=O)Cc1cc(F)cc(F)c1)C(=O)Nc1ncc(-c2ccccc2COc2ccccc2)s1 (centres unmarked) [Compound No. 5, 2-{[2-(3,5-difluorophenyl)acetyl]amino}-N-{5-[2-(phenoxymethyl)phenyl]-1,3-thiazol-2-yl}propanamide] | 114
C[C@H](NC(=O)Cc1cc(F)cc(F)c1)C(=O)Nc1ncc(-c2ccccc2COC2CCCCC2)s1 [Compound No. 26, (2S)-N-(5-{2-[(cyclohexyloxy)methyl]phenyl}-1,3-thiazol-2-yl)-2-{[2-(3,5-difluorophenyl)acetyl]amino}-propanamide] | 140
C[C@H](NC(=O)C(=O)c1cc(F)cc(F)c1)C(=O)Nc1ncc(-c2ccccc2COC2CCCCC2)s1 [Compound No. 61, (2S)-N-(5-{2-[(cyclohexyloxy)methyl]phenyl}-1,3-thiazol-2-yl)-2-{[2-(3,5-difluorophenyl)-2-oxoacetyl]-amino}propanamide] | 78
C[C@H](NC(=O)[C@@H](F)c1cc(F)cc(F)c1)C(=O)Nc1ncc(-c2ccccc2COC2CCCCC2)s1 [Compound No. 66, (2S)-N-(5-{2-[(cyclohexyloxy)methyl]phenyl}-1,3-thiazol-2-yl)-2-{[(2S)-2-(3,5-difluorophenyl)-2-fluoroacetyl]amino}propanamide] | 158
CCC[C@H](NC(=O)Cc1cc(F)cc(F)c1)C(=O)Nc1ncc(-c2ccc(OC)cc2COC(C)C)s1 [Compound No. 75, (2S)-2-{[2-(3,5-difluorophenyl)acetyl]amino}-N-(5-{2-(isopropoxymethyl)-4-methoxyphenyl}-1,3-thiazol-2-yl)pentanamide] | 73.9
CCOCc1ccccc1-c1cnc(NC(=O)C(C)NC(=O)Cc2cc(F)cc(F)c2)s1 (centres unmarked) [compound 3, 2-{[2-(3,5-difluorophenyl)acetyl]amino}-N-{5-[2-(ethoxymethyl)phenyl]-1,3-thiazol-2-yl}propanamide] | 165
CC(C)COCc1ccccc1-c1cnc(NC(=O)C(C)NC(=O)Cc2cc(F)cc(F)c2)s1 (centres unmarked) [compound 4, 2-{[2-(3,5-difluorophenyl)acetyl]amino}-N-{5-[2-(isobutoxymethyl)phenyl]-1,3-thiazol-2-yl}propanamide] | 181
CCC(NC(=O)Cc1cc(F)cc(F)c1)C(=O)Nc1ncc(-c2ccccc2COC2CCCCC2)s1 (centres unmarked) [compound 9, N-(5-{2-[(cyclohexyloxy)methyl]phenyl}-1,3-thiazol-2-yl}-2-{[2-(3,5-difluorophenyl)acetyl]amino}butanamide] | 179
CC(C)C(NC(=O)Cc1cc(F)cc(F)c1)C(=O)Nc1ncc(-c2ccccc2COC2CCCCC2)s1 (centres unmarked) [compound 10, N-(5-{2-[(cyclohexyloxy)methyl]phenyl}-1,3-thiazol-2-yl}-2-{[2-(3,5-difluorophenyl)acetyl]amino}-3-methylbutanamide] | 181
CC(NC(=O)Cc1ccccc1)C(=O)Nc1ncc(-c2ccccc2COC2CCCCC2)s1 (centres unmarked) [compound 11, N-(5-{2-[(cyclohexyloxy)methyl]phenyl}-1,3-thiazol-2-yl}-2-[(2-phenylacetyl)amino]propanamide] | 162
COCc1ccccc1-c1cnc(NC(=O)C(C)NC(=O)Cc2cc(F)cc(F)c2)s1 (centres unmarked) [compound 13, 2-{[2-(3,5-difluorophenyl)acetyl]amino}-N-{5-[2-(methoxymethyl)phenyl]-1,3-thiazol-2-yl}propanamide] | 194
Cc1cccc(CC(=O)N[C@@H](C)C(=O)Nc2ncc(-c3ccccc3COC3CCCCC3)s2)c1 [compound 16, (2S)-N-(5-{2-[(cyclohexyloxy)methyl]phenyl}-1,3-thiazol-2-yl)-2-{[2-(3-methylphenyl)acetyl]amino}-propanamide] | 98
C[C@H](NC(=O)Cc1cccc(Cl)c1)C(=O)Nc1ncc(-c2ccccc2COC2CCCCC2)s1 [compound 18, (2S)-2-{[2-(3-chlorophenyl)acetyl]amino}-N-{5-{2-[(cyclohexyloxy)methyl]phenyl}-1,3-thiazol-2-yl}propanamide] | 96
C[C@H](NC(=O)Cc1cccc(F)c1)C(=O)Nc1ncc(-c2ccccc2COC2CCCCC2)s1 [compound 19, (2S)-N-(5-{2-[(cyclohexyloxy)methyl]phenyl}-1,3-thiazol-2-yl)-2-{[2-(3-fluorophenyl)acetyl]amino}-propanamide] | 98
C[C@H](NC(=O)Cc1ccc(F)cc1)C(=O)Nc1ncc(-c2ccccc2COC2CCCCC2)s1 [compound 20, (2S)-N-(5-{2-[(cyclohexyloxy)methyl]phenyl}-1,3-thiazol-2-yl)-2-{[2-(4-fluorophenyl)acetyl]amino}-propanamide] | 70
C[C@H](NC(=O)Cc1cc(F)cc(F)c1)C(=O)Nc1ncc(-c2ccccc2COc2ccccc2)s1 [compound 21, (2S)-2-{[2-(3,5-difluorophenyl)acetyl]amino}-N-{5-[2-(phenoxymethyl)phenyl]-1,3-thiazol-2-yl}propanamide] | 78
C[C@H](NC(=O)Cc1cc(F)cc(F)c1)C(=O)Nc1ncc(-c2cccc(COC3CCCCC3)c2)s1 [compound 24, (2S)-N-(5-{3-[(cyclohexyloxy)methyl]phenyl}-1,3-thiazol-2-yl)-2-{[2-(3,5-difluorophenyl)acetyl]amino}-propanamide] | 123

Other lines, results leading:

melting point [°C] | Compound
78 | C[C@H](NC(=O)[C@H](F)c1cc(F)cc(F)c1)C(=O)Nc1ncc(-c2ccccc2COC2CCCCC2)s1 (racemic) [Compound No. 65, (2S)-N-(5-{2-[(cyclohexyloxy)methyl]phenyl}-1,3-thiazol-2-yl)-2-{[(2R)-2-(3,5-difluorophenyl)-2-fluoroacetyl]amino}propanamide]
126 | CC(NC(=O)Cc1cc(F)cc(F)c1)C(=O)Nc1ncc(-c2ccccc2COC2CCCCC2)s1 (centres unmarked) [Compound No. 2, N-(5-{2-[(cyclohexyloxy)methyl]phenyl}-1,3-thiazol-2-yl)-2-{[2-(3,5-difluorophenyl)acetyl]amino}propanamide]
147 | CC(NC(=O)Cc1cc(F)cc(F)c1)C(=O)Nc1ncc(-c2ccccc2COCc2ccccc2)s1 (centres unmarked) [Compound No. 6, N-(5-{2-[(benzyloxy)methyl]phenyl}-1,3-thiazol-2-yl)-2-{[2-(3,5-difluorophenyl)acetyl]amino}propanamide]
159 | C[C@H](NC(=O)[C@@H](O)c1cc(F)cc(F)c1)C(=O)Nc1ncc(-c2ccccc2COC2CCCCC2)s1 [Compound No. 51, (2S)-N-(5-{2-[(cyclohexyloxy)methyl]phenyl}-1,3-thiazol-2-yl)-2-{[(2S)-2-(3,5-difluorophenyl)-2-hydroxyacetyl]amino}propanamide]
88 | CCC[C@H](NC(=O)C(C)c1cc(F)cc(F)c1)C(=O)Nc1ncc(-c2ccccc2COC2CCCCC2)s1 (stereo partly drawn) [Compound No. 58, (2S)-N-(5-{2-[(cyclohexyloxy)methyl]phenyl}-1,3-thiazol-2-yl)-2-{[2-(3,5-difluorophenyl)propanoyl]-amino}pentanamide]
143 | CC(NC(=O)Cc1cc(F)cc(F)c1)C(=O)Nc1ncc(-c2ccccc2COCC2CCCCC2)s1 (centres unmarked) [compound 8, N-(5-{2-[(cyclohexylmethoxy)methyl]phenyl}-1,3-thiazol-2-yl)-2-{[2-(3,5-difluorophenyl)acetyl]amino}-propanamide]
152 | Cc1nc(NC(=O)C(C)NC(=O)Cc2cc(F)cc(F)c2)sc1-c1ccccc1COC1CCCCC1 (centres unmarked) [compound 12, N-(5-{2-[(cyclohexyloxy)methyl]phenyl}-4-methyl-1,3-thiazol-2-yl)-2-{[2-(3,5-difluorophenyl)acetyl]-amino}propanamide]
104 | Cc1nc(NC(=O)C(C)NC(=O)Cc2cc(F)cc(F)c2)sc1-c1ccccc1COC1CCCC1 (centres unmarked) [compound 14, N-(5-{2-[(cyclopentyloxy)methyl]phenyl}-4-methyl-1,3-thiazol-2-yl)-2-{[2-(3,5-difluorophenyl)acetyl]-amino}propanamide]
172 | O=C(Cc1cc(F)cc(F)c1)NCC(=O)Nc1ncc(-c2ccccc2COC2CCCCC2)s1 [compound 15, N-{2-[(5-{2-[(cyclohexyloxy)methyl]phenyl}-1,3-thiazol-2-yl)amino]-2-oxoethyl}-2-(3,5-difluorophenyl)-acetamide]
239 | Cc1ccc(CC(=O)N[C@@H](C)C(=O)Nc2ncc(-c3ccccc3COC3CCCCC3)s2)cc1 [compound 17, (2S)-N-(5-{2-[(cyclohexyloxy)methyl]phenyl}-1,3-thiazol-2-yl)-2-{[2-(4-methylphenyl)acetyl]amino}-propanamide]
136 | CC(C)OCc1ccccc1-c1cnc(NC(=O)[C@H](C)NC(=O)Cc2cc(F)cc(F)c2)s1 [compound 22, (2S)-2-{[2-(3,5-difluorophenyl)acetyl]amino}-N-{5-[2-(isopropoxymethyl)phenyl]-1,3-thiazol-2-yl}propanamide]
85 | Cc1nc(NC(=O)[C@H](C)NC(=O)Cc2cc(F)cc(F)c2)sc1-c1ccccc1COC1CCCCC1 [compound 23, (2S)-N-(5-{2-[(cyclohexyloxy)methyl]phenyl}-4-methyl-1,3-thiazol-2-yl)-2-{[2-(3,5-difluorophenyl)-acetyl]amino}propanamide]
95 | C[C@@H](NC(=O)Cc1cc(F)cc(F)c1)C(=O)Nc1ncc(-c2ccccc2COC2CCCCC2)s1 [compound 25, (2R)-N-(5-{2-[(cyclohexyloxy)methyl]phenyl}-1,3-thiazol-2-yl)-2-{[2-(3,5-difluorophenyl)acetyl]amino}-propanamide]
